One compound from patent publication US9821002B2, “Method for alleviating radiation injury with isorhamnetin-3-O-β-D-glucoside” (Sinotai Oncology Associate., Ltd., priority 2015, dated 2017) can be followed below.

The experiment concerns BNL CL.2 cells. Description: Clonogenic assay after X-ray irradiation. It counts as cell-based, mouse. The conditions noted are these: 30 μM, 2 h pretreatment, X-ray 2, 4, 6 Gy, colonies after two weeks. The source says:
Eight groups of BNL CL.2 cells (i.e., a normal control group referred to as Normal Control Group 1-A, an isorhamnetin-3-O-β-D-glucoside group referred to as Isorhamnetin-3-O-β-D-glucoside Group 1-A, three X-ray control groups referred to as X-Ray Control Groups 1-A to 3-A, and three experimental groups referred to as Experimental Groups 1-A to 3-A) and eight groups of NMuMG cells (i.e., a normal control group referred to as Normal Control Group 1-B, an isorhamnetin-3-O-β-D-glucoside group referred to as Isorhamnetin-3-O-β-D-glucoside Group 1-B, three X-ray control groups referred to as X-Ray Control Groups 1-B to 3-B, and three experimental groups referred to as Experimental Groups 1-B to 3-B) were prepared based on the procedure set forth in “Source and cultivation of cell lines” of “Experimental materials”. Specifically, BNL CL.2 cells in each group were cultivated using 5 mL of a corresponding medium shown in Table 1 and a 6-cm Petri dish in an amount of 2×10^5 cells per dish. Likewise, NMuMG cells in each group were cultivated using 5 mL of a corresponding medium shown in Table 1 and a 6-cm Petri dish in an amount of 2.5×10^5 cells per dish. The cultivation was conducted in an incubator (37° C., 5% CO2) for 24 hours. […]

For `COc1cc(-c2oc3cc(O)cc(O)c3c(=O)c2O[C@@H]2O[C@H](CO)[C@@H](O)[C@H](O)[C@H]2O)ccc1O` [isorhamnetin-3-O-β-D-glucoside], the “survival fraction (clonogenic assay) versus X-ray control group” value is “higher than that of the X-ray control group”.
